Test results reported in ChEMBL document CHEMBL3044806, “Target-site mutation associated with glufosinate resistance in Italian ryegrass (Lolium perenne L. ssp. multiflorum)” (Pest Manag Sci, 2012).

What was measured:
Lolium multiflorum [1] = test: (§1) Induction of ammonia accumulation in glufosinate-susceptible Lolium multiflorum C1 (Italian ryegrass) seedlings at 3-leaf stage assessed as ammonia level per gram of leaves fresh weight at 0.4 kg Ai/ha measured 96 hr after compound treatment under greenhouse conditions (reference value: 11.04 +/- 0.89 ug/g of leaves fresh weight); type: functional
Lolium multiflorum [2] = test: as §1, with “72” for “96”; type: functional
Lolium multiflorum [3] = test: as §1, with “48” for “96”; type: functional
Lolium multiflorum [4] = test: Resistance index, ratio of GR50 for glufosinate-resistant Lolium multiflorum MG (Italian ryegrass) expressing one amino acid substitution in plastidic GS2 gene aspartic acid for asparagine at position 171 to GR50 for glufosinate-susceptible Lolium multiflorum (Italian ryegrass)C2; type: functional
Lolium multiflorum [5] = test: Resistance index, ratio of GR50 for glufosinate-resistant Lolium multiflorum MG (Italian ryegrass) expressing one amino acid substitution in plastidic GS2 gene aspartic acid for asparagine at position 171 to GR50 for glufosinate-susceptible Lolium multiflorum (Italian ryegrass)C1; type: functional
Lolium multiflorum [6] = test: Herbicidal activity against glufosinate-resistant Lolium multiflorum MG (Italian ryegrass) expressing one amino acid substitution in plastidic GS2 gene aspartic acid for asparagine at position 171 assessed as reduction above-ground dry weight measured after 15 days post compound treatment under greenhouse conditions; type: functional
Lolium multiflorum [7] = test: Herbicidal activity against glufosinate-susceptible Lolium multiflorum C2 (Italian ryegrass) assessed as reduction above-ground dry weight measured after 15 days post compound treatment under greenhouse conditions; type: functional
Lolium multiflorum [8] = test: as §1, with “multiflorum” for “multiflorum C1”, “three-leaf” for “3-leaf”, “24” for “96”; type: functional, C1
Lolium multiflorum [9] = test: Herbicidal activity against glufosinate-susceptible Lolium multiflorum C1 (Italian ryegrass) assessed as reduction above-ground dry weight measured after 15 days post compound treatment under greenhouse conditions; type: functional
Lolium multiflorum [10] = test: as §1, with “C2” for “C1”, “24” for “96”, “14.79” for “11.04”, “4.09” for “0.89”; type: functional
Glutamine synthetase [11] = target: T1, Glutamine synthetase (Lolium perenne, UniProt C5IW59); test: Inhibition of glutamine synthetase in glufosinate-resistant Lolium multiflorum MG (Italian ryegrass) seedlings; settings: read-out: I50
T1 sequence (C5IW59 whole entry): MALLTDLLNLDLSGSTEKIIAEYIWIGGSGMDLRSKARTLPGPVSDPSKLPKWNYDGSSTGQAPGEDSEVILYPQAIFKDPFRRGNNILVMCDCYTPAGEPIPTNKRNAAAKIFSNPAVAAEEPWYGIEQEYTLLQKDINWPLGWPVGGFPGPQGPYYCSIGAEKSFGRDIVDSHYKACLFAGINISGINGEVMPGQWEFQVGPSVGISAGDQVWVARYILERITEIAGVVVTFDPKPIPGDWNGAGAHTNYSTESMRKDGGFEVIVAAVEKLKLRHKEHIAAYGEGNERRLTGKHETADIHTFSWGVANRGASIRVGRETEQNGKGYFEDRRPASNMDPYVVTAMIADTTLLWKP

Glutamine synthetase [12] = target: T1, Glutamine synthetase; test: Inhibition of glutamine synthetase in glufosinate-susceptible Lolium multiflorum C2 (Italian ryegrass) seedlings; settings: read-out: I50
Glutamine synthetase [13] = target: T1, Glutamine synthetase; test: Inhibition of glutamine synthetase in glufosinate-susceptible Lolium multiflorum C1 (Italian ryegrass) seedlings; settings: read-out: I50
Lolium multiflorum [14] = test: as §1, with “glufosinate-resistant” for “glufosinate-susceptible”, “MG” for “C1”, “12.41” for “11.04”, “0.97” for “0.89”; type: functional
Lolium multiflorum [15] = test: as §1, with “glufosinate-resistant” for “glufosinate-susceptible”, “MG” for “C1”, “72” for “96”, “12.41” for “11.04”, “0.97” for “0.89”; type: functional
Lolium multiflorum [16] = test: as §1, with “glufosinate-resistant” for “glufosinate-susceptible”, “MG” for “C1”, “48” for “96”, “12.41” for “11.04”, “0.97” for “0.89”; type: functional
Lolium multiflorum [17] = test: as §1, with “glufosinate-resistant” for “glufosinate-susceptible”, “MG” for “C1”, “24” for “96”, “12.41” for “11.04”, “0.97” for “0.89”; type: functional
Lolium multiflorum [18] = test: as §1, with “C2” for “C1”, “14.79” for “11.04”, “4.09” for “0.89”; type: functional
Lolium multiflorum [19] = test: as §1, with “C2” for “C1”, “72” for “96”, “14.79” for “11.04”, “4.09” for “0.89”; type: functional
Lolium multiflorum [20] = test: as §1, with “C2” for “C1”, “48” for “96”, “14.79” for “11.04”, “4.09” for “0.89”; type: functional

CP(=O)(O)CCC(N)C(=O)O (stereo not given) [GLUFOSINATE]
Activity (Lolium multiflorum [1]): 428 µg/g
Activity (Lolium multiflorum [2]): 332 µg/g
Activity (Lolium multiflorum [3]): 304 µg/g
Ratio (Lolium multiflorum [4]): 2.8
Ratio (Lolium multiflorum [5]): 2.8
GR50 (Lolium multiflorum [6]): 0.45 KgAi/ha
GR50 (Lolium multiflorum [7]): 0.18 KgAi/ha
Activity (Lolium multiflorum [8]): 225 µg/g
GR50 (Lolium multiflorum [9]): 0.15 KgAi/ha
Activity (Lolium multiflorum [10]): 244 µg/g
IC50 (Glutamine synthetase [11]): 2430 µM
IC50 (Glutamine synthetase [12]): 137 µM
IC50 (Glutamine synthetase [13]): 31 µM
Activity (Lolium multiflorum [14]): 256 µg/g
Activity (Lolium multiflorum [15]): 212 µg/g
Activity (Lolium multiflorum [16]): 187 µg/g
Activity (Lolium multiflorum [17]): 165 µg/g
Activity (Lolium multiflorum [18]): 384 µg/g
Activity (Lolium multiflorum [19]): 353 µg/g
Activity (Lolium multiflorum [20]): 320 µg/g
